Data: patent US20120165325A1, “Stable forms of N-(2,6-Dimethyl-4-morpholin-4-yl-phenyl)-3,3-dimethyl-butyramide” (H. Lundbeck A/S, priority 2009, published 2012)
Marks after values point to notes of the source that are not given here.

Assays:
Male NMRI mice = assay: Amphetamine sensitisation: inhibition of the sensitised behavioural response to amphetamine; type: in vivo, mouse; settings: Mus musculus; amphetamine-pretreated mice; s.c. 30 min before D-amphetamine challenge 1.25 mg/kg s.c.; 30 min test; S.D. in brackets
Description: Subjects. […] The animals were housed 6 mice pr cage in a 12-hr light/dark cycle under controlled conditions for regular in-door temperature (21±2° C.) and humidity (55±5%) with food and tap water available ad libitum.
Experimental procedure. […] 5×8 infrared light sources and photocells interspaced by 4 cm monitor the locomotor activity.
Administration of compounds.
Data analyses. […] A therapeutic index value can subsequently be calculated by dividing the first ED50 by the second.

Male Wistar rats = assay: Amphetamine challenge: antagonism of d-amphetamine induced hyperactivity; type: in vivo; settings: rat; s.c. 30 min before d-amphetamine sulphate 0.5 mg/kg; motility over 2 hours; std. dev. in brackets
Description: Subjects. Male Wistar rats (Taconic, Denmark) weighing 170-240 g are used. The animals were housed under a 12-hr light/dark cycle under controlled conditions for regular in-door temperature (21±2° C.) and humidity (55±5%) with food and tap water available ad libitum. Eight rats were used at each dose level and in the parallel control group receiving the vehicle to the test compound plus d-amphetamine and the group receiving vehicle injections only.
Experimental procedure. The experiment was made in normal light conditions in an undisturbed room. The test substance was injected 30 min before s.c. before the injection of d-amphetamine sulphate (0.5 mg/kg). Immediately after injection of d-amphetamine, the rats were placed individually in the test cages that were placed in a U-frame, equipped with 4 infrared light sources and photocells. The light beams crossed the cage 4 cm above the cage floor. Recording of a motility count required interruption of adjacent light beams, thus avoiding counts induced by stationary movements of the rat. Motility (counts) was recorded for a period of 2 hours. The mean motility induced by vehicle (saline) treatment in the absence of d-amphetamine was used as baseline. The 100 percent effect of d-amphetamine was accordingly calculated to be total motility counts minus baseline. The response in groups receiving test compound was thus determined by the total motility counts minus baseline, expressed in percent of the similar result recorded in the parallel amphetamine control group. The percent responses were converted to percent inhibition from which ED50 values were calculated by means of log-probit analyses. In a parallel set of data, the potential sedative properties (motility inhibition) of the test compounds were evaluated using essentially the same procedure with the exception of not administering d-amphetamine-sulphate at the initiation of locomotor assessment.

[1] = system: DA levels in the nucleus accumbens; assay: Microdialysis: DA levels in the nucleus accumbens of freely moving rats; type: in vivo, rat; settings: for DA level in the nucleus accumbens, % of baseline: amphetamine 0.5 mg/kg s.c. + compound 5 mg/kg s.c.
Description: Subjects. Male Sprague-Dawley rats (Charles River), initially weighing 275-300 g, were used. The animals were housed under a 12-hr light/dark cycle under controlled conditions for regular in-door temperature (21±2° C.) and humidity (55±5%) with food and tap water available ad libitum.
Surgery. Animals were anaesthetized with hypnorm/dormicum (2 ml/kg s.c.) and intracerebral guide cannulas (CMA/12) were stereotaxically implanted, positioning the dialysis probe tip in the nucleus accumbens (co-ordinates: 1.7 mm anterior to bregma, −1.2 mm lateral to bregma, 8.0 mm ventral to the dura). Anchor screws and acrylic cement was applied for fixation of the guide cannula. The body temperature of the animals was maintained at 37° C. by means of a rectal probe and a heating plate. The rats were allowed to recover from surgery for 2 days, housed singly in cages.
Experimental procedure. On the day of the experiment, a microdialysis probe (CMA/12, 0.5 mm diameter, 2 mm length) was inserted through the guide cannula of the conscious animal.
The probes were connected to a microinjection pump via a dual channel swivel which allowed the animals unrestricted movements. Perfusion of the microdialysis probe with filtered Ringer solution (145 mM NaCl, 3 mM KCl, 1 mM MgCl2, 1.2 mM CaCl2) was maintained for the duration of the experiment at a constant flow rate of 1 μL/min. After 180 min of stabilisation, the experiments were initiated. Dialysates were collected every 20 min. After the experiments the rats were sacrificed by decapitation, their brains removed, frozen and sliced for probe placement verification.
Administration of compounds. N-(2,6-dimethyl-4-morpholin-4-yl-phenyl)-3,3-dimethyl-butyramide (5 mg/kg) or vehicle (10% 2-hydroxy-propyl-beta-cyclodextrin, isotonic, pH 5-7) was administered subcutaneously in a volume of 2.5 ml/kg. Thirty min after the first administration dex-amphetamine sulphate (0.5 mg/kg s.c.) was administered.
Analysis of dialvsate. The concentration of dopamine (DA) in the dialysates was assessed by means of HPLC with electrochemicl detection. The dialysate constitutents were separated by reverse phase liquid chromatography (ODS 150×3 mm, […]). Mobile phase consisted of 90 mM NaH2PO4, 50 mM sodium citrate, 367 mg/l sodium 1-octanesulfonic acid, 50 μM EDTA and 8% acetonitrile (pH 4.0) at a flow rate of 0.5 mL/min. Electrochemical detection of DA was accomplished using a coulometric detector; potential set at E1=−75 mV and E2=300 mV (guard cell at 350 mV) (Coulochem II, ESA). The dialysate levels of DA in the three dialyse samples preceding the administration of compound were averaged and used as baseline level of DA (100%).
Statistical analysis. The dialysate levels of DA in the three dialyse samples preceding the administration of compound were averaged and used as baseline level of DA (100%). Data were analysed using repeated measure analyses of variance followed by post hoc tests (Tukey test), when appropriate. *p<0.05 were considered significant.

With `Cc1cc(N2CCOCC2)cc(C)c1NC(=O)CC(C)(C)C` [N-(2,6-dimethyl-4-morpholin-4-yl-phenyl)-3,3-dimethyl-butyramide] the ED50 (Male NMRI mice) was 1.6 mg/kg, the ED50 (Male Wistar rats) was 2.1 mg/kg and the “Effect on basal extracellular DA level in the nucleus accumbens” value ([1]; freely moving rats, data not shown) was “did not significantly affected”. The “DA level in the nucleus accumbens, % of baseline” value (shortened to “DA level … % of baseline”) ([1]; time 0 min (baseline sample)) was 91 ± 4 % of baseline, the “DA level … % of baseline” value ([1]; time 20 min) was 112 ± 12 % of baseline and the “DA level … % of baseline” value ([1]; time 40 min) was 227 ± 46 % of baseline. The “DA level … % of baseline” value ([1]; time 60 min) was 262 ± 53* % of baseline, the “DA level … % of baseline” value ([1]; time 80 min) was 195 ± 38* % of baseline and the “DA level … % of baseline” value ([1]; time 100 min) was 172 ± 24 % of baseline. The “DA level … % of baseline” value ([1]; time 120 min) was 166 ± 32 % of baseline, the “DA level … % of baseline” value ([1]; time 140 min) was 129 ± 35 % of baseline and the “DA level … % of baseline” value ([1]; time −20 min (baseline sample)) was 100 ± 3 % of baseline. The “DA level … % of baseline” value ([1]; time −40 min (baseline sample)) was 108 ± 5 % of baseline.
